Source: paper PMC9144829, “Histone Deacetylase Inhibitory Activity and Antiproliferative Potential of New [6]-Shogaol Derivatives” (Molecules, 2022)
Read-outs that look alike come from different tables or passages of the source. One block for each compound: values may come before it.

Columns and labels:
[1] = test system: HDAC enzymes (HeLa nuclear extract, mixed-HDAC isoforms); test: Fluor-de-Lys HDAC activity assay kit, HeLa nuclear extract as source of HDAC enzymes; type: biochemical, human; settings: compounds at 100 µM
Procedure: The in vitro HDAC inhibitions of the obtained compounds were carried out with the assay kit containing mixed-HDAC isoforms. […] Therefore, the results were not fully related. However, compounds with good binding affinities should have the potential to be specific HDAC inhibitors for each isoform.
The semi-synthetic derivatives were evaluated for their ability to inhibit HDAC enzymes. Inhibition of HDAC activity in vitro was assessed using the Fluor-de-Lys HDAC activity assay kit (Biomol, Enzo Life Sciences International, Inc., Farmingdale, NY, USA). The HeLa nuclear extract provided with the kit was used as a source of HDAC enzymes for the in vitro study. TSA was used as the positive control. The HeLa nuclear extract, substrate, buffer and inhibitors were incubated. Deacetylation of the substrate was performed next by adding a developer to generate a fluorophore. The spectra Max Gemini XPS microplate spectrofluorometer (Molecular Devices, San Jose, CA, USA) was used to measure fluorescence signal with excitation at 360 nm and emission at 460 nm. A decrease in fluorescence signal indicated an inhibition of HDAC activity. Trichostatin A (TSA) was used as a positive control. All experiments were carried out in triplicate.

[2] = test system: cholangiocarcinoma KKU-M213B cells; test: MTT assay, KKU-M213B cells; type: cell-based, human; settings: read-out: IC50 Values (Mean ± SD; n = 3)
Procedure: (§1) The MTT reduction assay was performed with non-cancer (Vero), human cervical cancer (HeLa), human colon cancer (HCT116), human breast adenocarcinoma cancer (MCF-7), and cholangiocarcinoma (H-69 […], KKU-100 and KKU-M213B) cell lines according to the previously described method. Briefly, cells were seeded in 96-well plates. The next day, cells were exposed to the selected compounds at various concentrations and incubated for 24, 48 and 72 h. After incubation, the culture medium was exchanged with 110 µL of MTT (0.5 mg/mL in PBS medium) and further incubated for 2 h. The amount of MTT formazan product was determined after dissolving in DMSO by measuring its absorbance with a microplate reader (Bio-Rad Laboratories, Hercules, CA, USA) at a test wavelength of 550 nm and a reference wavelength of 655 nm. The cell viability was expressed as a percentage of the viable cells of control culture conditions, and the IC50 values of each group were calculated.

[3] = test system: cholangiocarcinoma KKU-100 cells; test: MTT assay, KKU-100 cells; type: cell-based, human
Procedure: as §1

[4] = test system: human breast adenocarcinoma cancer (MCF-7) cells; test: MTT assay, MCF-7 cells; type: cell-based
Procedure: as §1

[5] = test system: human cervical cancer (HeLa) cells; test: MTT assay, HeLa cells; type: cell-based; settings: read-out: IC50 Values (Mean ± SD; n = 3), HeLa cells
Procedure: as §1

H-69 cells = test: MTT assay, H-69 cells; type: cell-based
Procedure: as §1

[6] = test system: human colon cancer (HCT116) cells; test: MTT assay, HCT116 cells; type: cell-based
Procedure: as §1

Vero cells = test: MTT assay, non-cancer Vero cells; type: cell-based; settings: Chlorocebus sabaeus, read-out: IC50 Values (Mean ± SD; n = 3)
Procedure: as §1

[7] = read-out: IC50 Values (Mean ± SD; n = 3), 24 h
[8] = read-out: IC50 Values (Mean ± SD; n = 3), 48 h
[9] = read-out: IC50 Values (Mean ± SD; n = 3), 72 h
[10] = Homo sapiens, KKU100, read-out: IC50 Values (Mean ± SD; n = 3), 24 h
[11] = Homo sapiens, KKU100, read-out: IC50 Values (Mean ± SD; n = 3), 48 h
[12] = Homo sapiens, KKU100, read-out: IC50 Values (Mean ± SD; n = 3), 72 h
[13] = Homo sapiens, MCF7, read-out: IC50 Values (Mean ± SD; n = 3), 24 h
[14] = Homo sapiens, MCF7, read-out: IC50 Values (Mean ± SD; n = 3), 48 h
[15] = Homo sapiens, MCF7, read-out: IC50 Values (Mean ± SD; n = 3), 72 h
[16] = Homo sapiens, NCI-H69, read-out: IC50 Values (Mean ± SD; n = 3), 24 h
[17] = Homo sapiens, NCI-H69, read-out: IC50 Values (Mean ± SD; n = 3), 48 h
[18] = Homo sapiens, NCI-H69, read-out: IC50 Values (Mean ± SD; n = 3), 72 h
[19] = Homo sapiens, HCT-116, read-out: IC50 Values (Mean ± SD; n = 3), 24 h
[20] = Homo sapiens, HCT-116, read-out: IC50 Values (Mean ± SD; n = 3), 48 h
[21] = Homo sapiens, HCT-116, read-out: IC50 Values (Mean ± SD; n = 3), 72 h

Compound: N.N.[Cl][Pt][Cl] [Cisplatin, reference compound]
IC50 ([2]; 24 h): > 20 µM | IC50 ([2]; 48 h): 18.6 ± 0.57 µM | IC50 ([2]; 72 h): 13 ± 0.61 µM | IC50 [3, 7]: 17.32 ± 0.12 µM | IC50 [3, 8]: 11.2 ± 0.14 µM | IC50 [3, 9]: 7.57 ± 0.07 µM | IC50 [4, 7]: 29.2 ± 1.35 µM | IC50 [4, 8]: 13.8 ± 0.54 µM | IC50 [4, 9]: 10.4 ± 0.25 µM | IC50 ([5]; 24 h): 17.1 ± 1 µM | IC50 ([5]; 48 h): 9.97 ± 0.34 µM | IC50 ([5]; 72 h): 6.45 ± 0.12 µM | IC50 (H-69 cells; [7]): > 20 µM | IC50 (H-69 cells; [8]): > 20 µM | IC50 (H-69 cells; [9]): 15.8 ± 0.35 µM | IC50 [6, 7]: 21 ± 2.56 µM | IC50 [6, 8]: 7.61 ± 0.61 µM | IC50 [6, 9]: 4.98 ± 0.77 µM

Compound: CCCCC/C=C/C(CCc1ccc(O)c(OC)c1)=N\N [Compound 4a, 4-((3Z,4E)-3-Hydrazonodec-4-en-1-yl)-2-methoxyphenol]
%HDAC Inhibition [1]: 73%

Compound: CCCCC/C=C/C(CCc1ccc(O)c(OC)c1)=N\Nc1ccc(C(=O)O)cc1 [Compound 4b, 4-(2-((3Z,4E)-1-(4-Hydroxy-3-methoxyphenyl)dec-4-en-3-ylidene)hydrazinyl)benzo-ic acid]
%HDAC Inhibition [1]: 73%

Compound: CCCCC/C=C/C(CCc1ccc(O)c(OC)c1)=N\Nc1ccccn1 [Compound 4c, 2-Methoxy-4-((3Z,4E)-3-(2-(pyridin-2-yl)hydrazono)dec-4-en-1-yl)phenol]
IC50 ([2]; Homo sapiens, 24 h): 39 ± 0.27 µM | IC50 ([2]; Homo sapiens, 48 h): 28.98 ± 0.26 µM | IC50 ([2]; Homo sapiens, 72 h): 25.9 ± 0.71 µM | IC50 (Vero cells; 24 h): 69.5 ± 3.94 µM | IC50 (Vero cells; 48 h): 49.31 ± 0.18 µM | IC50 (Vero cells; 72 h): 45.2 ± 0.49 µM | %HDAC Inhibition [1]: 80% | IC50 [3, 10]: 36.8 ± 0.89 µM | IC50 [3, 11]: 29.7 ± 0.96 µM | IC50 [3, 12]: 19.2 ± 0.41 µM | IC50 [4, 13]: 46.4 ± 1.3 µM | IC50 [4, 14]: 39.4 ± 0.68 µM | IC50 [4, 15]: 27.1 ± 0.47 µM | IC50 ([5]; Homo sapiens, 24 h): 49.3 ± 1.27 µM | IC50 ([5]; Homo sapiens, 48 h): 33.4 ± 1.09 µM | IC50 ([5]; Homo sapiens, 72 h): 29.3 ± 0.88 µM | IC50 (H-69 cells; [16]): 40 ± 1.57 µM | IC50 (H-69 cells; [17]): 30.6 ± 0.82 µM | IC50 (H-69 cells; [18]): 28.7 ± 0.36 µM | IC50 [6, 19]: 20.2 ± 0.46 µM | IC50 [6, 20]: 18.4 ± 0.32 µM | IC50 [6, 21]: 17.2 ± 0.23 µM

Compound: CCCCC/C=C/C(CCc1ccc(O)c(OC)c1)=N\Nc1nc2ccccc2s1 [Compound 4d, 4-((3Z,4E)-3-(2-(Benzo[d]thiazol-2-yl)hydrazono)dec-4-en-1-yl)-2-methoxyphenol]
IC50 ([2]; Homo sapiens, 24 h): 39.84 ± 0.29 µM | IC50 ([2]; Homo sapiens, 48 h): 20.6 ± 0.18 µM | IC50 ([2]; Homo sapiens, 72 h): 18.2 ± 0.75 µM | IC50 (Vero cells; 24 h): 170 ± 6.98 µM | IC50 (Vero cells; 48 h): 70 ± 1.27 µM | IC50 (Vero cells; 72 h): 60.1 ± 1.69 µM | %HDAC Inhibition [1]: 80% | IC50 [3, 10]: 41.6 ± 1.24 µM | IC50 [3, 11]: 31.5 ± 0.8 µM | IC50 [3, 12]: 25.75 ± 0.2 µM | IC50 [4, 13]: 104 ± 3.17 µM | IC50 [4, 14]: 57.8 ± 2.37 µM | IC50 [4, 15]: 25.5 ± 1.15 µM | IC50 ([5]; Homo sapiens, 24 h): 51.6 ± 1.92 µM | IC50 ([5]; Homo sapiens, 48 h): 37.2 ± 1.33 µM | IC50 ([5]; Homo sapiens, 72 h): 33.7 ± 0.76 µM | IC50 (H-69 cells; [16]): 51.4 ± 1.51 µM | IC50 (H-69 cells; [17]): 41.4 ± 0.61 µM | IC50 (H-69 cells; [18]): 29.4 ± 0.89 µM | IC50 [6, 19]: 40.1 ± 1.47 µM | IC50 [6, 20]: 28.3 ± 0.79 µM | IC50 [6, 21]: 26.63 ± 0.15 µM

Compound: CCCCC/C=C/C(CCc1ccc(O)c(OC)c1)=N\NC1=NCC=N1 [Compound 4e, 4-((3Z,4E)-3-(2-(4H-Imidazol-2-yl)hydrazono)dec-4-en-1-yl)-2-methoxyphenol]
%HDAC Inhibition [1]: 73%

Continued, values first:

%HDAC Inhibition [1]: 64%
Compound: 10-(4-Hydroxy-3-methoxyphenyl)-6-((2-hydroxyphenyl)amino)decan-8-one [Compound 6b]

%HDAC Inhibition [1]: 54%
Compound: 10-(4-Hydroxy-3-methoxyphenyl)-6-((2-mercaptophenyl)amino)decan-8-one [Compound 6a]

%HDAC Inhibition [1]: 53%
Compound: 10-(4-Hydroxy-3-methoxyphenyl)-6-(phenylamino)decan-8-one [Compound 6c]

%HDAC Inhibition [1]: 74%
Compound: CCCCCC1CC(CCc2ccc(O)c(OC)c2)=NN1c1ccccc1 (stereo not drawn) [Compound 5a, 2-methoxy-4-(2-(5-pentyl-1-phenyl-4,5-dihydro-1H-pyrazol-3-yl)ethyl)phenol]
